Values joined by “and” are separate entries in the source; they are usually repeats but may differ in a detail not shown here. Identical values can stand only once. Like-named read-outs stand apart in the source and are kept apart here.
What was measured:
[1] = Cell viability (cytotoxicity) assay; assay type: cell-based; conditions: human, MDA-MB-231 cells, 48 h treatment
Description: On the day of treatment, respective compounds were serially diluted using a semi-logarithmic dilution series from 20 mM stocks in neat DMSO into DMEM-high glucose media (10% v/v FBS) in a separate 96-well plate and under sterile conditions. Thereafter, 10 μL of the diluted compounds at their respective concentrations (n = 4) were added to the cells. […] Vehicle media blanks or drug blanks were also included to correct for inherent colour of the compounds and phenol red-containing media. Following 48 h treatment, 20 μL CellTitre 96® Aqueous One Solution Cell Proliferation Assay (Promega, Madison, USA) was added to each well, plates were incubated for 2 h, and absorbance was measured at 490 nm using a SpectraMax Plus 384-well plate reader (Molecular Devices LLC, San Jose, USA) and Softmax PRO v7.0 software. Blank-corrected data were analysed and graphed using GraphPad PRISM v8.0 software (GraphPad Software, San Diego, CA USA).

NHE1 [2] = conditions: read-out: NHE1 IC50 (literature); cited from earlier work
NHE1 [3] = molecular target: T1, NHE1 (Homo sapiens, UniProt P19634); assay: Plate-based NHE1 inhibition assay (BCECF pHi recovery, 96-well plate reader); assay type: cell-based
T1 construct: endogenous in cells; host or cells: MDA-MB-231
Description: To perform NHE1 screening with increased throughput, we adapted the conventional cuvette-based NHE1 activity assay to a simple new 96-well plate format using MDA-MB-231 cells that were compatible with common laboratory fluorescence plate readers (see Section 4 for details).
Culture media were removed and replaced with 200 µL 0.2% FBS-containing media with incubation for 3–4 h to stimulate NHE1 activity, followed by incubation for 30 min in the presence of 5 µM 2′,7′-bis(carboxyethyl)-5(6)-carboxyfluorescein-acetoxymethyl ester (BCECF-AM, cat #ab143463, Abcam, Cambridge, United Kingdom). Cells were then washed with 100 µL/well Na^+-free acid-load buffer: 10 mM NH4Cl, 1.8 mM CaCl2, 90 mM N-methyl-D-glucamine (from 1 M stock titrated to pH 7.4 with HCl), 5 mM glucose, 15 mM HEPES, 5 mM KCl, 1 mM MgCl2 (pH 7.5, adjusted with KOH), and incubated at 37 °C for a further 30 min. Acid-load buffer was removed and replaced with Na^+-containing assay buffer: 100 mM NaCl, 1.8 mM CaCl2, 5 mM glucose, 15 mM HEPES, 5 mM KCl, 1 mM MgCl2 containing serial dilution of each compound or DMSO vehicle, and changes in fluorescence were read immediately using a BMG Labtech POLARstar OMEGA (BMG Labtech GmbH, Offenburg, Germany) plate reader according to the parameters in Table S1. Compounds were tested at n = 3 technical replicates per concentration per plate. BCECF-AM-free cells were treated with matched concentrations of each compound to correct for intrinsic fluorescence. DMSO was present in all wells at a final concentration of 1% v/v. Inhibition of NHE1-mediated pHi recovery was determined by ratiometric calculation of the change in blank-corrected pH-sensitive fluorescence divided by the isobestic fluorescence for each well over time. […] (0% activity) controls present on each plate. IC50 values were determined through fitting of Log-10 transformed data using the “log(inhibitor) versus normalised response–variable slope” non-linear function in GraphPad PRISM v8.0 software package (GraphPad Software, San Diego, CA, USA).

[4] = molecular target: T2, urokinase from human kidney cells (human uPA) (Homo sapiens, UniProt P00749); assay: uPA inhibition assay (fluorescence-based, purified enzyme); assay type: biochemical; conditions: for uPA selectivity ratio: uPA over NHE1
T2 construct: low molecular weight active human uPA; purchased Sigma-Aldrich U4010; host or cells: human kidney cells

NHE1 [5] = molecular target: T1, NHE1; assay: Cuvette-based NHE1 inhibition assay; assay type: cell-based
Description: Performed as described in [53]. Briefly, MDA-MB-231 cells were grown to ~80–90% confluence on glass coverslips. Then, 3 µM BCECF were loaded into cells in 400 µL serum-free medium and the fluorescence was measured using a PTI Deltascan spectrofluorometer (Horiba Ltd., Kyoto, Japan). […] A calibration curve of pHi fluorescence was performed for every sample using nigericin [55]. […] IC50 values were determined through fitting of Log-10 transformed data using the “log(inhibitor) versus normalised response–variable slope” non-linear function in GraphPad PRISM v8.0 software package (GraphPad Software, San Diego, USA).

[6] = molecular target: T3, MDA-MB-231 cell-surface uPA (HMW human active uPA bound to uPAR) (Homo sapiens, UniProt P00749); assay: Cell-surface uPA activity assay; assay type: cell-based; conditions: average ± SEM from four independent assays
T3 construct: pre-incubated with active high molecular weight (HMW) uPA; purchased Molecular Innovations HTC-UPA; host or cells: added to MDA-MB-231 cells (endogenous uPAR)
Description: Having identified non-cytotoxic compounds with the desired target selectivity profiles, we then sought to confirm their uPA inhibitory activities in a more physiologically relevant, whole-cell assay. To this end, the fluorogenic biochemical assay was modified to allow measurement of cell-surface uPA activity in MDA-MB-231 cells, which are known to express uPAR [38, 39]. To maximise enzymatic activity, the cells were pre-incubated with active high molecular weight (HMW) uPA to saturate unoccupied uPAR present at the cell surface.
MDA-MB-231 cells were seeded into Greiner CELLSTAR black 96-well plates (Greiner Bio-one, cat #655079) at density 10,000 cells/well in a volume of 100 µL media and cultured for 48 h. On the day of the experiment, cell culture media were removed via shakeout, followed by washing with 100 µL 1 × Dulbecco’s PBS/1 mM CaCl2/1 mM MgCl2/0.1% protease-free bovine serum albumin/pH 7.4 wash buffer. Cells were then incubated in the presence of 25 nM HMW human active uPA (Molecular Innovations, San Diego, CA, USA, SKU: HTC-UPA) in wash buffer for 30 min at RT. Unbound HMW uPA was removed via washing twice with 100 µL wash buffer. […] Plates were read immediately following the addition of substrate using a POLARstar OMEGA fluorescence plate reader (BMG Labtech GmbH, Offenburg, Germany) according to the parameters in Table S1.

ENaC = conditions: previously showed; cited from earlier work
[7] = previously showed; cited from earlier work
[8] = tested on: orthotopic xenograft model of pancreatic ductal adenocaricinoma; conditions: pancreatic ductal adenocarcinoma; cited from earlier work
[9] = 1 μM, MDA-MB-231 cells, plate reader
[10] = MDA-MB-231 cells, plate-reader assay, read-out: NHE1 Plate reader IC50
[11] = purified enzyme, Z-Gly-Gly-Arg-AMC substrate, number in parentheses after value, read-out: uPA IC50
[12] = MDA-MB-231 cells, cuvette assay, read-out: NHE1 Cuvette IC50
[13] = plate-reader value as printed in nM in text, read-out: NHE1 IC50

T1 sequence (P19634 whole entry): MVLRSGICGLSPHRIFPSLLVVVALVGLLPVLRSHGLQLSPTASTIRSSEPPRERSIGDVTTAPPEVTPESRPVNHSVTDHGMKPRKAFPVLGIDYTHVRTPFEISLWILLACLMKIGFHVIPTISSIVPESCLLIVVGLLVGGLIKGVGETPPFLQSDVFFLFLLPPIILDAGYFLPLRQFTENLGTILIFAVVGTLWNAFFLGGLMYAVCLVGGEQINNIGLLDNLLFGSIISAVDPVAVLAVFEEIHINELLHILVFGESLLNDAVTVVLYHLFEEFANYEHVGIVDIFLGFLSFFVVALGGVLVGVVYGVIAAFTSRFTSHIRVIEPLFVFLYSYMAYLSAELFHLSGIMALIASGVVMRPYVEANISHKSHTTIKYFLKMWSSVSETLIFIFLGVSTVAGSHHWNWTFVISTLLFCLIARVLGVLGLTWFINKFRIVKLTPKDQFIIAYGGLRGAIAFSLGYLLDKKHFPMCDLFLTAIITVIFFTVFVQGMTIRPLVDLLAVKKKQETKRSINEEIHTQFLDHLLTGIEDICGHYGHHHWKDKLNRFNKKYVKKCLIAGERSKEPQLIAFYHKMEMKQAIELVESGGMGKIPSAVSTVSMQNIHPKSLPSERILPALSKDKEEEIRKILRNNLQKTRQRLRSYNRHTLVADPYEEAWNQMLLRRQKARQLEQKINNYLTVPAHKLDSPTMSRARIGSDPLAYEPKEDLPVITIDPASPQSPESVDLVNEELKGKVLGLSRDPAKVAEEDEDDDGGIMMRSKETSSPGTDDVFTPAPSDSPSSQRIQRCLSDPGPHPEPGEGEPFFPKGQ

Row | Structure (SMILES) | IC50 at 48 h [1] | inhibition at 1 µM (NHE1 [3]; [9]) | inhibition at 10 µM (NHE1 [3]; MDA-MB-231 cells, plate reader) | IC50 [4, 11] | IC50 (NHE1 [5]; [12]) | also measured
1 | N=C(N)NC(=O)c1nc(Cl)c(N)nc1N [AML, Amiloride, reference compound] | > 100000 nM | 7% | 64% | – | – | IC50 (NHE1 [2]): […]
2 | CC(=O)N1CCC(c2ccc(C(=O)NC(=N)N)cc2C(F)(F)F)CC1 [BI-9627, reference compound] | – | – | – | – | – | IC50 ([4]; human uPA, fluorometric method, Figure S1, read-out: uPA IC50 (not reached at the highest concentration tested)): > 50000 nM; IC50 (NHE1 [5]; Figure S1, n = 6 technical replicates/concentration, read-out: NHE1 IC50, cuvette assay): 7.5 nM; IC50 (NHE1 [2]): 6 nM; IC50 (NHE1 [3]; Figure S1 representative curve, n = 3 technical replicates, read-out: NHE1 IC50 of curve shown, plate reader assay): 1.4 nM; IC50 (NHE1 [3]; [10]): 3 ± 0.8 nM
3 | N=C(N)NC(=O)c1nc(-c2cncnc2)c(N2CCCCCC2)nc1N [compound 24] | > 100000 nM | 80% | 96% | 175 nM and < 300 nM | 397 nM | IC50 [6]: 130 ± 10 nM; uPA selectivity ratio [4]: 1.5; ENaC activity in vitro (ENaC): no ENaC activity; K+-sparing or diuretic effects in vivo [7]: no K^+-sparing or diuretic effects; IC50 (NHE1 [3]; [13]): 266 nM and < 300 nM
4 | COc1ncc(-c2nc(C(=O)NC(=N)N)c(N)nc2N2CCCCCC2)cn1 [compound 26] | > 100000 nM | 0% | 72% | 86 nM | 21500 nM | IC50 [6]: 149 ± 14 nM; uPA selectivity ratio [4]: 143; ENaC activity in vitro (ENaC): no ENaC activity; K+-sparing or diuretic effects in vivo [7]: no K^+-sparing or diuretic effects; anti-metastatic properties [8]: anti-metastatic properties; NHE1 Inhibition (%) 1 μM (NHE1 [3]; [9]): no activity; drop in NHE1 potency relative to unsubstituted 24 (NHE1 [3]; IC50 measurements): ~ 46 fold; IC50 (NHE1 [3]; [13]): 12300 nM
5 | N=C(N)NC(=O)c1nc(Cl)c(N2CCOCC2)nc1N [compound 29] | > 100000 nM | 85% | 100% | 10900 nM | 166 nM | NHE1 selectivity ratio (selectivity over uPA) (NHE1 [3]): 85 fold; IC50 (NHE1 [3]; [13]): 129 nM
6 | N=C(N)NC(=O)c1nc(Cl)c(N2CCCOCC2)nc1N [compound 30] | 95600 nM | 91% | 100% | 5720 nM | 93 nM | NHE1 selectivity ratio (selectivity over uPA) (NHE1 [3]): 67 fold; IC50 (NHE1 [3]; [13]): 85 nM
7 | N=C(N)NC(=O)c1nc(-c2cc3ccccc3o2)c(N2CCOCC2)nc1N [compound 36] | 36700 nM | 29% | 81% | 797 ± 15 nM | – | –
8 | N=C(N)NC(=O)c1nc(-c2cc3ccccc3o2)c(N2CCCOCC2)nc1N [compound 37] | 54000 nM | 55% | 96% | 149 ± 17 nM | – | –
9 | N=C(N)NC(=O)c1nc(-c2cc3ncccc3o2)c(N2CCCC2)nc1N [compound 38] | > 100000 nM | 0% | 81% | 113 ± 4 nM | – | –
10 | N=C(N)NC(=O)c1nc(-c2ccc(C(F)(F)F)cc2)c(N2CCCC2)nc1N [compound 39] | 23900 nM | 95% | 100% | 6190 nM | 441 nM | IC50 (NHE1 [3]; [10]): 605 ± 134 nM
11 | N=C(N)NC(=O)c1nc(-c2ccc(C(F)(F)F)cc2)c(C2CC2)nc1N [compound 40] | 26600 nM | 28% | 80% | 16200 nM | – | –
12 | N=C(N)NC(=O)c1nc(-c2cncnc2)c(N2CCOCC2)nc1N [compound 41] | > 100000 nM | 77% | 87% | 563 ± 29 nM | – | –
13 | N=C(N)NC(=O)c1nc(-c2cncnc2)c(N2CCCOCC2)nc1N [compound 42] | > 100000 nM | 39% | 96% | 780 ± 33 nM | – | –
14 | COc1ncc(-c2nc(C(=O)NC(=N)N)c(N)nc2N2CCCOCC2)cn1 [compound 43] | > 100000 nM | 0% | 16% | 267 ± 14 nM | – | –

Reference: article PMC8000185 (International Journal of Molecular Sciences, 2021)
